Values joined by “and” are separate entries in the source; they are usually repeats but may differ in a detail not shown here. Equal entries are not always repeated. After the bases stand the sugars from the 5' end (letter, count) and the backbone: PS all phosphorothioate, else s phosphorothioate and o phosphodiester by linkage. Methylation of C is not given here. k = constrained ethyl (cEt); d = 2'-deoxy (DNA)

This data set concerns the target MALAT1. To be noted: ASO, A431, 0.005 µM.
CAACACCCGGAAATCG (sugars k3 d10 k3, PS): the target mRNA inhibition came out at 18%. As to TACCTTAACATCTTGT (sugars k3 d10 k3, PS), the target mRNA inhibition stood at 14%. CCCCCAACTGCTTGCA (sugars k3 d10 k3, PS): the target mRNA inhibition stood at 29%. The same measure for TCTTGAAGACTGTTGC (sugars k3 d10 k3, PS): 44%.

As for ATCAGAACAGTACTGC (sugars k3 d10 k3, PS), the target mRNA inhibition was 35%.

Take GTTAGGTATGAGCTTC (sugars k3 d10 k3, PS): the target mRNA inhibition worked out at 15%.

In the case of CATTCTAATAGCAGCG (sugars k3 d10 k3, PS), the target mRNA inhibition is 51% and 68%.

With TAATCTCCCACCTGTC (sugars k3 d10 k3, PS), the target mRNA inhibition was 7%. Regarding GACTGCTTAAAACTGC (sugars k3 d10 k3, PS), the target mRNA inhibition was 36%.

For GAATCTCAGGGTTATG (sugars k3 d10 k3, PS), the target mRNA inhibition was 57% and 76%. Then CTGATAAACTCACTGC (sugars k3 d10 k3, PS), with 48%. The same measure for AAAGCGAGTTCAAGTG (sugars k3 d10 k3, PS): -12%. Then CATGGAAAGCGAGTTC (sugars k3 d10 k3, PS), with 20%; and CAGACCTGAAGTCAAG (sugars k3 d10 k3, PS), with 14%.

As to AACCCCCAGTTCAATA (sugars k3 d10 k3, PS), the target mRNA inhibition was 20%.

Consider GGAAAGCGAGTTCAAG (sugars k3 d10 k3, PS), for which the target mRNA inhibition is 24%.

Consider ATCACTACTCCAAGCA (sugars k3 d10 k3, PS), for which the target mRNA inhibition amounted to 20%. Turning to AACTCCCCCCCGCCTC (sugars k3 d10 k3, PS), the target mRNA inhibition is 6%. Take GTACACCCAGTGGCTC (sugars k3 d10 k3, PS): the target mRNA inhibition came out at 6%.

Take CAAACTACACATGCAG (sugars k3 d10 k3, PS): the target mRNA inhibition was 6%.

Take GGCTCATATTTAACTT (sugars k3 d10 k3, PS): the target mRNA inhibition is 20%. The same measure for TGAACCCCGTCCTGGA (sugars k3 d10 k3, PS): 3%; for CCTTATTTAGAGGGCC (sugars k3 d10 k3, PS): 33%; for AGCCCCCCACGGCCCG (sugars k3 d10 k3, PS): 27%. The same measure for AACAGCACAGCGGTAC (sugars k3 d10 k3, PS): 2%; for CACTACCATATCCAAA (sugars k3 d10 k3, PS): 23%; for TGTTCGAGAAATCGGA (sugars k3 d10 k3, PS): 17%. The same measure for ATCTGATTCTAACAGC (sugars k3 d10 k3, PS): 40%. GTGTTCGCAGACAAAG (sugars k3 d10 k3, PS): the target mRNA inhibition was found to be 10%. Turning to GGCCAGCCTATAAGGA (sugars k3 d10 k3, PS), the target mRNA inhibition was found to be 6%. For the sequence CGGGATCAGAACAGTA (sugars k3 d10 k3, PS), the target mRNA inhibition was 24%. Consider AGCATTGGAGATCAGC (sugars k3 d10 k3, PS), for which the target mRNA inhibition turned out to be 36%.

As for GTCAATAGTACTATAG (sugars k3 d10 k3, PS), the target mRNA inhibition was 58% and 42%. Then GTAACAGGCCACTGCC (sugars k3 d10 k3, PS), with 14%; and CGCCTGCTACCTTCAT (sugars k3 d10 k3, PS), with 30%.

As to CATAGTTCAACCCACC (sugars k3 d10 k3, PS), the target mRNA inhibition was 35%. On to TTCCCTATATAAGGTC (sugars k3 d10 k3, PS), for which the target mRNA inhibition is 6%. Then GATAGTTCAGGGCTTT (sugars k3 d10 k3, PS), with 10%; and GGTTTTATCTAAATAC (sugars k3 d10 k3, PS), with 25%. The same measure for CCATCATACTGCCAGG (sugars k3 d10 k3, PS): 17%; for GTATGACATATAATCT (sugars k3 d10 k3, PS): 55% and 77%; for AGGGTTATGCTTATTC (sugars k3 d10 k3, PS): 63% and 60%. Then TTTACAGAAGTCTCGG (sugars k3 d10 k3, PS), with -31%; and GCTAGTCCTCAGGATT (sugars k3 d10 k3, PS), with 47%. With GTCTCCGAAGACACAG (sugars k3 d10 k3, PS), the target mRNA inhibition is -5%. As for CCAGCAAAATGTACTC (sugars k3 d10 k3, PS), the target mRNA inhibition is 46%. On to TATCCTGATATTGGAT (sugars k3 d10 k3, PS), for which the target mRNA inhibition is 24%. The same measure for CTGCACTGTGCTGTAC (sugars k3 d10 k3, PS): -5%; for CTGTTTAAGTCACCTT (sugars k3 d10 k3, PS): 76% and 61%.

On to GCACTTATCCCTAACA (sugars k3 d10 k3, PS), for which the target mRNA inhibition is 58% and 40%.

As for GAAGCATACCTTAACA (sugars k3 d10 k3, PS), the target mRNA inhibition turned out to be 5%. Then GTGGTTATAGCTTGAC (sugars k3 d10 k3, PS), with 79% and 93%. Then CCTTTTAAAGTAGACC (sugars k3 d10 k3, PS), with -22%; and CTCAGTTACACATCCA (sugars k3 d10 k3, PS), with 70% and 94%.

Turning to GTTCGAGAAATCGGAG (sugars k3 d10 k3, PS), the target mRNA inhibition turned out to be 15%.

In the case of AATGCATTCTAATAGC (sugars k3 d10 k3, PS), the target mRNA inhibition was 17%. In the case of TGCCCTTAGCTTTTTG (sugars k3 d10 k3, PS), the target mRNA inhibition worked out at 56%. The same measure for TCCCCAATGGAGGTAT (sugars k3 d10 k3, PS): 9%; for ATCATATTTTAAACGG (sugars k3 d10 k3, PS): 32%. As for TACCGCACAGCTCGGG (sugars k3 d10 k3, PS), the target mRNA inhibition stood at 20%.

In the case of CTTCAACATTTGGCCT (sugars k3 d10 k3, PS), the target mRNA inhibition amounted to 18%. The same measure for GAGTGGTTTTATCTAA (sugars k3 d10 k3, PS): 31%; for TCATGGATTTCAAGGT (sugars k3 d10 k3, PS): 51%; for TGAGTGTTCCTGCATG (sugars k3 d10 k3, PS): 36%. The same measure for CCTAACATGCAATACT (sugars k3 d10 k3, PS): 12%; for AAGATATTGTGCTGTT (sugars k3 d10 k3, PS): 13%. The same measure for TTCCGCCGCCTCTTAA (sugars k3 d10 k3, PS): 22%; for TTGCTTACACACAACT (sugars k3 d10 k3, PS): 18%. TGTGATAGTTCAGGGC (sugars k3 d10 k3, PS): the target mRNA inhibition was -12%. With ACCAACCCCCAGTTCA (sugars k3 d10 k3, PS), the target mRNA inhibition was 28%. As to GATTTGAGCTGCAAAC (sugars k3 d10 k3, PS), the target mRNA inhibition came to 0%. The same measure for GACCTGCCTTCAGGCG (sugars k3 d10 k3, PS): 13%; for AACAATCACTACTCCA (sugars k3 d10 k3, PS): 26%. Regarding AGAGCATTGGAGATCA (sugars k3 d10 k3, PS), the target mRNA inhibition came to 20%. On to CTTATCTGCGGTTTCC (sugars k3 d10 k3, PS), for which the target mRNA inhibition was 62% and 53%. With ATAAGGACAGCTAAGA (sugars k3 d10 k3, PS), the target mRNA inhibition stood at 8%.

With AGGTCATCTATTCACA (sugars k3 d10 k3, PS), the target mRNA inhibition turned out to be 39%. Take GCAATACTGCAGATGC (sugars k3 d10 k3, PS): the target mRNA inhibition was -19%. Then TGCCGACCTCACGGAT (sugars k3 d10 k3, PS), with 24%; and ACAACATATTGCCGAC (sugars k3 d10 k3, PS), with 10%. As to TAGGATCCTCTACGCA (sugars k3 d10 k3, PS), the target mRNA inhibition came to 23%. Then TGAAGTGTACTATCCC (sugars k3 d10 k3, PS), with 72% and 88%; and GCAAGTCCTCATTACT (sugars k3 d10 k3, PS), with 50% and 30%; and CTGAGGCAAACGAAAC (sugars k3 d10 k3, PS), with -6%.

In the case of TTTTTGTTCGAGAAAT (sugars k3 d10 k3, PS), the target mRNA inhibition is -7%.

For the sequence CGCCAACACAGTTTGC (sugars k3 d10 k3, PS), the target mRNA inhibition came to 12%. For CCCTACTGAAGAGCAT (sugars k3 d10 k3, PS), the target mRNA inhibition stood at 13%. As to TCAAAATCCTGAATGG (sugars k3 d10 k3, PS), the target mRNA inhibition came out at 38%. Then AAACTTGCCATCTACT (sugars k3 d10 k3, PS), with -4%; and ATCTTAACTCAAAGTC (sugars k3 d10 k3, PS), with 39%; and GCCCGCACGGAAATTT (sugars k3 d10 k3, PS), with 23%.

With CCGTTGGCTGCCAGTG (sugars k3 d10 k3, PS), the target mRNA inhibition is 6%. The same measure for CCACCAATCCCAACCG (sugars k3 d10 k3, PS): 26%; for GATTTTTACCAACCAC (sugars k3 d10 k3, PS): 42%. Then CAATTTATAGACCCCT (sugars k3 d10 k3, PS), with -6%. As to TTTTTGTGGTTATAGC (sugars k3 d10 k3, PS), the target mRNA inhibition was 75% and 88%. As for TCTCCCACCTGTCTAA (sugars k3 d10 k3, PS), the target mRNA inhibition stood at 23%. Then ACCTGGGTCAGCTGTC (sugars k3 d10 k3, PS), with 14%; and CATCAGAAGAAATCCC (sugars k3 d10 k3, PS), with 17%.
